Measurements as given in US12090252B2, “Method for producing retinal tissues” (RIKEN, priority 2017, dated 2024).

Tests used:
Assay type in all cases: cell-based
[1] = test system: cell aggregates containing a retinal tissue produced from human ES cells; assay: CRX-positive and TRβ2-positive cells in retinal tissue, about day 70 of suspension culture (immunostaining, Image J); settings: for CRX-positive and TRβ2-positive cells (cone photoreceptor precursor) / CRX-positive cells (photoreceptor precursor) contained in retinal tissue: about day 70 (day 71-75) from start of suspension culture, T3 60 nM from day 38, BMP4 0.15 nM or Cyclopamine-KAAD 500 nM from day 22
Experimental: (§1) A cell aggregate containing a retinal tissue in an initial developmental stage was prepared by the method described in “Kuwahara et al. Nat Commun 2015, 19(6), 6286-” after modification in part. That is, the aforementioned cultured ES cells were individually dispersed using TRYPLE™ Express cell dispersion solution (Invitrogen), and the individually dispersed human ES cells were suspended in 100 μL of a serum-free medium in a cell non-adhesive 96 well culture plate (SUMILON spheroid plate, SUMITOMO BAKELITE CO., LTD.) at 9×10^3 cells per well to allow rapid formation of aggregates, after which they were cultured at 37° C., 5% CO2. As the serum-free medium therefor, a serum-free medium obtained by adding 10% KSR, 450 μM 1-monothioglycerol, 1× Chemically defined lipid concentrate, 5 mg/mL BSA, 20 μM Y27632 to a 1:1 mixture of F-12 medium and IMDM medium was used. At 6 days after the start of suspension culture, BMP4 at a final concentration of 1.5 nM was added and suspension culture was continued. A half amount of the culture medium in the well was exchanged with the above-mentioned medium not supplemented with a BMP signal transduction pathway agonist every 3 or 4 days. A cell aggregate containing a retinal tissue at day 18 from the start of suspension culture was cultured in suspension in a serum-free medium (DMEM/F12 medium supplemented with 1% N2 supplement) containing 3 μM CHIR99021 and 5 μM SU5402 for 4 days, namely, up to day 22 from the start of suspension culture. Thereafter, suspension culture of the cell aggregate containing the retinal tissue was continued until it was appropriately used for analysis and the like. As the culture medium during this period, serum-containing media shown in the following to [3] were used and the cell aggregate was cultured under 5% CO2 conditions. • [1] day 22 to day 38 from the start of suspension culture; DMEM/F12 medium supplemented with 10% fetal calf serum, 1% N2 supplement, and 100 μM taurine (hereinafter to be referred to as medium A). • [2] day 38 to day 60 from the start of suspension culture; a 1:3 mixed medium of medium A, and Neurobasal medium supplemented with 10% fetal calf serum, 2% B27 supplement, […], and 100 μM taurine (hereinafter to be referred to as medium B). • [3] after day 60 or later from the start of suspension culture: medium B.
The cell aggregates containing a retinal tissue shown in Example 4 were prepared by respectively adding T3 or dorsalization signal transmitter (BMP4) as follows in the method described in Example 1. • [1]-T3 group (FIG. 4a, FIG. 4e, FIG. 4i); using the culture medium described in Example 1, culture was performed without addition up to day 75 from the start of suspension culture. • [2] +T3 group (FIG. 4b, FIG. 4f, FIG. 4j); using the culture medium described in Example 1, 60 nM T3 was further added from day 38 from the start of suspension culture to the completion of suspension culture, and cultured up to day 71 from the start of suspension culture. • [3] +T3+BMP group (FIG. 4c, FIG. 4g, FIG. 4k); using the culture medium described in Example 1, 0.15 nM BMP4 and 60 nM T3 were further added respectively from day 22, day 38 from the start of suspension culture to the completion of suspension culture, and cultured up to day 71 from the start of suspension culture. • [4] +T3+Cyclopamine-KAAD group (FIG. 4d, FIG. 4h, FIG. 4l); using the culture medium described in Example 1, 500 nM Cyclopamine-KAAD and 60 nM T3 were further added respectively from day 22, day 38 from the start of suspension culture to the completion of suspension culture, and cultured up to day 71 from the start of suspension culture.
After fixing cell aggregates containing retinal tissue cultured under the above conditions with 4% para-formaldehyde, cryosections were prepared and subjected to immunostaining using CRX, TRβ2(TRb2) antibody, or DAPI staining for staining the cell nucleus.

[2] = test system: cell aggregates containing a retinal tissue produced from human ES cells; assay: PAX6/CHX10 cell proportions in retinal tissue, about day 190 of suspension culture (immunostaining, Image J); settings: for PAX6-negative/CHX10-strongly positive cells (bipolar cells) / PAX6-strongly positive/CHX10-negative cells (any of ganglion cell, amacrine cell, horizontal cell): about day 190 (day 188-191), T3 60 nM day 38-130, BMP4 0.15 nM or Cyclopamine-KAAD 500 nM day 22-100; for PAX6-strongly positive/CHX10-negative cell and PAX6-negative/CHX10-strongly positive cell, observation with fluorescent microscope: day 188-191, groups added with T3 compared to groups with no addition
Experimental: as §1
The cell aggregates containing a retinal tissue shown in Example 5 were prepared by respectively adding T3 or dorsalization signal transmitter as follows in the method described in Example 1. • [1]-T3 group (FIG. 5a, FIG. 5g, FIG. 5m); using the culture medium described in Example 1, culture was performed without addition up to day 191 from the start of suspension culture. • [2] +T3 group (FIG. 5b, FIG. 5h, FIG. 5n); using the culture medium described in Example 1, 60 nM T3 was further added from day 38 to day 130 from the start of suspension culture, and thereafter cultured up to day 188 from the start of suspension culture. From day 130 to day 188, medium B described in Example 1 was used. • [3] +BMP group (FIG. 5c, FIG. 5i, FIG. 5o); using the culture medium described in Example 1, 0.15 nM BMP4 was further added from day 22 to day 100 from the start of suspension culture, and thereafter cultured up to day 191 from the start of suspension culture. From day 100 to day 191, medium described in Example 1 was used. • [4] +T3+BMP group (FIG. 5d, FIG. 5j, FIG. 5p); using the culture medium described in Example 1, 0.15 nM BMP4 was further added from day 22 to day 100 from the start of suspension culture, 60 nM T3 was added from day 38 to day 130 from the start of suspension culture, and thereafter cultured up to day 188 from the start of suspension culture.

[3] = test system: cell aggregates containing a retinal tissue produced from human ES cells; assay: CRX:Venus, RXR-γ and NRL cell proportions in retinal tissue, about day 190 of suspension culture (immunostaining, Image J); settings: for CRX-positive cells (CRX:Venus-positive, photoreceptor precursor) / NRL-positive cells among CRX-positive cells (rod photoreceptor precursor) / RXR-γ-positive and NRL-negative cell among CRX-positive cells (cone photoreceptor precursor): about day 190 (day 188-193), T3 60 nM day 38-130, BMP4 0.15 nM or Cyclopamine-KAAD 500 nM day 22-100
Experimental: as §1
The cell aggregates containing a retinal tissue shown in Example 6 were prepared by respectively adding T3 or dorsalization signal transmitter (BMP4 or Cyclopamine-KAAD) as follows in the method described in Example 1. • [1]-T3 group (FIG. 6a, FIG. 6e, FIG. 6i, FIG. 6m); using the culture medium described in Example 1, culture was performed without addition up to day 191 from the start of suspension culture. • [2] +T3 group (FIG. 6b, FIG. 6f, FIG. 6j, FIG. 6n); using the culture medium described in Example 1, 60 nM T3 was further added from day 38 to day 130 from the start of suspension culture, and thereafter cultured up to day 192 from the start of suspension culture. From day 130 to day 192, medium described in Example 1 was used. • [3] +T3+BMP group (FIG. 6c, FIG. 6g, FIG. 6k, FIG. 6o); using the culture medium described in Example 1, 0.15 nM BMP4 was further added from day 22 to day 100 from the start of suspension culture, 60 nM T3 was added from day 38 to day 130 from the start of suspension culture, and thereafter cultured up to day 188 from the start of suspension culture. From day 130 to day 188, medium described in Example 1 was used. • [4] +T3+Cyclopamine-KAAD group (FIG. 6d, FIG. 6h, FIG. 6l, FIG. 6p); using the culture medium described in Example 1, 500 nM Cyclopamine-KAAD was further added from day 22 to day 100 from the start of suspension culture, 60 nM T3 was added from day 38 to day 130 from the start of suspension culture, and thereafter cultured up to day 193 from the start of suspension culture. From day 130 to day 193, medium described in Example 1 was used.

[4] = test system: cell aggregates containing a retinal tissue produced from human ES cells; assay: CRX-positive cells in neural retinal tissue, day 100-105 of suspension culture (immunostaining, Image J)
Experimental: A cell aggregate containing a retinal tissue in an initial developmental stage was prepared by the method described in “Kuwahara et al. Nat Commun 2015, 19(6), 6286-” after modification in part. That is, the aforementioned cultured ES cells were individually dispersed using TRYPLE™ Express cell dispersion solution (Invitrogen), and the individually dispersed human ES cells were suspended in 100 μL of a serum-free medium in a cell non-adhesive 96 well culture plate (SUMILON spheroid plate, SUMITOMO BAKELITE CO., LTD.) at 9×10^3 cells per well to allow rapid formation of aggregates, after which they were cultured at 37° C., 5% CO2. As the serum-free medium therefor, a serum-free medium obtained by adding 10% KSR, 450 μM 1-monothioglycerol, 1× Chemically defined lipid concentrate, 5 mg/mL BSA, 20 μM Y27632 to a 1:1 mixture of F-12 medium and IMDM medium was used. At 6 days after the start of suspension culture, BMP4 at a final concentration of 1.5 nM was added and suspension culture was continued. A half amount of the culture medium in the well was exchanged with the above-mentioned medium not supplemented with a BMP signal transduction pathway agonist every 3 or 4 days. A cell aggregate containing a retinal tissue at day 18 from the start of suspension culture was cultured in suspension in a serum-free medium (DMEM/F12 medium supplemented with 1% N2 supplement) containing 3 μM CHIR99021 and 5 μM SU5402 for 4 days, namely, up to day 22 from the start of suspension culture. Thereafter, suspension culture of the cell aggregate containing the retinal tissue was continued until it was appropriately used for analysis and the like. […]

[5] = test system: cell aggregates containing a retinal tissue produced from human ES cells; assay: CRX:Venus green fluorescence of cell aggregates under a fluorescent microscope, day 69-74; settings: T3 vs −T3 group
Experimental: A cell aggregate containing a retinal tissue in an initial developmental stage was prepared by the method described in “Kuwahara et al. Nat Commun 2015, 19(6), 6286-” after modification in part. That is, the aforementioned cultured ES cells were individually dispersed using TRYPLE™ Express cell dispersion solution (Invitrogen), and the individually dispersed human ES cells were suspended in 100 μL of a serum-free medium in a cell non-adhesive 96 well culture plate (SUMILON spheroid plate, SUMITOMO BAKELITE CO., LTD.) at 9×10^3 cells per well to allow rapid formation of aggregates, after which they were cultured at 37° C., 5% CO2. As the serum-free medium therefor, a serum-free medium obtained by adding 10% KSR, 450 μM 1-monothioglycerol, 1× Chemically defined lipid concentrate, 5 mg/mL BSA, 20 μM Y27632 to a 1:1 mixture of F-12 medium and IMDM medium was used. At 6 days after the start of suspension culture, BMP4 at a final concentration of 1.5 nM was added and suspension culture was continued. A half amount of the culture medium in the well was exchanged with the above-mentioned medium not supplemented with a BMP signal transduction pathway agonist every 3 or 4 days. […]

[6] = day 71-75, T3 vs −T3 group, combinations vs +T3 group
[7] = day 188-193, compared to −T3 group

Row | Compound | CRX-positive and TRβ2-positive cells (cone photoreceptor precursor) [1] [%] | CRX-positive cells (photoreceptor precursor) contained in retinal tissue [1] [%] | PAX6-negative/CHX10-strongly positive cells (bipolar cells) [2] [%] | PAX6-strongly positive/CHX10-negative cells (any of ganglion cell, amacrine cell, horizontal cell) [2] [%] | PAX6-strongly positive/CHX10-negative cell and PAX6-negative/CHX10-strongly positive cell, observation with fluorescent microscope [2] | CRX-positive cells (CRX:Venus-positive, photoreceptor precursor) [3] [%] | NRL-positive cells among CRX-positive cells (rod photoreceptor precursor) [3] [%] | RXR-γ-positive and NRL-negative cell among CRX-positive cells (cone photoreceptor precursor) [3] [%] | CRX-positive cell (photoreceptor precursor), observation with fluorescence microscope [1, 6] | cone photoreceptor precursors (CRX-positive cell that expresses TRβ2), observation [1, 6] | ectopic CRX-positive cell in region on the basement membrane side from neuroblastic layer ([1]; day 71-75, observation with fluorescence microscope) | RXR-γ-positive and NRL-negative cone photoreceptor precursor among CRX:Venus-positive photoreceptor precursors, observation [3, 7] | proportion of photoreceptor precursor among the cells contained in the retinal tissue, observation [3, 7] | proportion of CRX-positive cells contained in the neural retinal tissue ([4]; T3 60 nM from day 38, BMP4 0.15 nM or Cyclopamine-KAAD 500 nM day 22-100) [%] | CRX-positive cell (photoreceptor precursor), observation ([4]; compared to −T3 group) | ectopic photoreceptor precursors in neuroblastic layer and ganglion cell layer ([4]; observation) | green fluorescence shown by knocked-in CRX:Venus ([5]; day 69-74, T3 60 nM from day 38, BMP4 0.15 nM or Cyclopamine-KAAD 500 nM from day 22, combinations vs +T3 group) | green fluorescence shown by knocked-in CRX:Venus, in the presence of 9-cis retinoic acid ([5]; day 74, 100 nM 9-cis retinoic acid and 60 nM T3 from day 38, BMP4 0.45 nM from day 22, combination vs +T3 group)
1 | CC1=C2C[C@H]3[C@@H](CC=C4CC(=O)CC[C@@]43C)[C@@H]2CC[C@]12O[C@@H]1C[C@H](C)CN(CCNC(=O)CCCCCNC(=O)CCc3ccccc3)[C@H]1[C@H]2C [Cyclopamine-KAAD] | 8.1 | 14.1 | 8.65 | 24.50 | many | 41.7 | 11.5 | 30.2 |  |  |  |  |  |  |  |  |  | 
2 | N[C@@H](Cc1cc(I)c(Oc2ccc(O)c(I)c2)c(I)c1)C(=O)O [T3, triiodothyronine] | 11.3 | 22.8 | 4.29 | 13.83 | markedly decreased | 53.4 | 9.4 | 44.1 | found more | found in a greater number | found at the same level as in the apical surface | increased | markedly high | 30.0 | remarkably increased | ectopic photoreceptor precursors are contained | observed more | observed more
3 | BMP4: BMP protein, BMP signal transduction pathway agonist used as dorsalization signal transmitter | 10.8 | 17.0 | 15.49 | 24.60 | many | 37.7 | 6.1 | 31.3 |  |  |  |  |  |  |  |  |  | 
